Laboratory results as given in ChEMBL document CHEMBL5029159, “Reduction of Progranulin-Induced Breast Cancer Stem Cell Propagation by Sortilin-Targeting Cyclotriazadisulfonamide (CADA) Compounds” (J Med Chem, 2021).
Active and inactive are the calls of the source. No cut-off for these calls is given here.

Key:
HEK-293T [1] = experiment: (§1) Cytotoxicity against human HEK293T cells assessed as reduction in cell viability after 72 hrs by alamar blue assay; type: cell-based; conditions: hek-293t, 72 h
HEK-293T [2] = experiment: Down modulation of sortilin expression in HEK293T cells tranfected with GFP-tagged sortilin incubated for 24 hrs by flow cytometric analysis; type: functional, cell-based; conditions: Homo sapiens
[3] = Kinetic solubility of compound at pH 7.4 PBS buffer incubated for 30 mins by nephelometry; type: physicochemical; conditions: for Kinetic_solubility: buffer, pH 7.4, 0.5 h; for solubility kinetic at 0.5 h: PBS buffer, pH 7.4, read-out: Kinetic_solubility
[4] = Therapeutic index, ratio of CC50 for cytotoxicity against human HEK293T cells to ratio of IC50 for Down modulation of sortilin expression in HEK293T cells tranfected with GFP-tagged sortilin incubated for 24 hrs by flow cytometric analysis; type: toxicity, cell-based; conditions: read-out: TI
MDA-MB-231 [5] = experiment: Down modulation of sortilin expression in ERalpha-negative human MDA-MB-231 cells incubated for 48 hrs by Western blot analysis; type: ADME, cell-based; conditions: mda-mb-231, 48 h
MCF7 [6] = experiment: Inhibition of mammosphere-forming capacity in ER-positive human MCF7 cells assessed as inhibition of progranulin-induced mammosphere formation at 1 uM measured after 48 hrs by microscopy; type: functional, cell-based
MDA-MB-231 [7] = experiment: Inhibition of mammosphere-forming capacity in ER-negative human MDA-MB-231 cells assessed inhibition of as progranulin-induced mammosphere formation at 1 uM measured after 48 hrs by microscopy; type: functional, cell-based
MCF7 [8] = experiment: Cytotoxicity against human MCF7 cells assessed as reduction in cell viability after 48 hrs by alamar blue assay; type: functional, cell-based
MDA-MB-231 [9] = experiment: Cytotoxicity against human MDA-MB-231 cells assessed as reduction in cell viability after 48 hrs by alamar blue assay; type: functional, cell-based
MCF7 [10] = experiment: Down modulation of sortilin expression in ERalpha-positive human MCF7 cells incubated for 48 hrs by Western blot analysis; type: ADME, cell-based; conditions: mcf7, 48 h
MCF7 [11] = experiment: Effect on mammosphere-forming capacity in ER-positive human MCF7 cells measured after 48 hrs by microscopy; type: functional, cell-based
MDA-MB-231 [12] = experiment: Effect on mammosphere-forming capacity in ER-negative human MDA-MB-231 cells measured after 48 hrs by microscopy; type: functional, cell-based
MCF7 [13] = experiment: Inhibition of mammosphere-forming capacity in ER-positive human MCF7 cells assessed as inhibition of progranulin-induced mammosphere formation at 4 uM measured after 48 hrs by microscopy; type: functional, cell-based
MDA-MB-231 [14] = experiment: Inhibition of mammosphere-forming capacity in ER-negative human MDA-MB-231 cells assessed as inhibition of progranulin-induced mammosphere formation at 4 uM measured after 48 hrs by microscopy; type: functional, cell-based
[15] = as §1; type: cell-based, HEK-293T; conditions: HEK293T cells

Row | Compound | CC50 (HEK-293T [1]) [nM] | IC50 (HEK-293T [2]) [nM] | Kinetic_solubility [3] [µM] | selectivity ratio at 24 h [4] | Activity (MDA-MB-231 [5]) | inhibition (MCF7 [6]) | inhibition (MDA-MB-231 [7]) | Activity (MCF7 [8]) | Activity (MDA-MB-231 [9]) | Activity (MCF7 [10]) | Activity (MCF7 [11]) | Activity (MDA-MB-231 [12]) | inhibition (MCF7 [13]) | inhibition (MDA-MB-231 [14]) | solubility kinetic at 0.5 h [3] [µM] | CC50 at 72 h [15] [nM]
1 | C=C1CN(S(=O)(=O)c2ccc(OC)cc2)CCCN(CC2CCCCC2)CCCN(S(=O)(=O)c2ccc(N(C)C)cc2)C1.Cl | 1000 | 100 | 56 | 10 | Active | Active | Active | inactive | inactive | Dose-Dependent Effect | inactive | inactive |  |  |  | 
2 | C=C1CN(S(=O)(=O)c2ccc(C)cc2)CCCN(CC2CCCCC2)CCCN(S(=O)(=O)c2ccc(OCCO)cc2)C1.Cl | 15000 | 9000 | 59 | 1.7 |  |  | Active |  |  |  | inactive | inactive | Active | Active |  | 
3 | C=C1CN(S(=O)(=O)c2ccc(C)cc2)CCCN(CC2CCCCC2)CCCN(S(=O)(=O)c2ccc(OC)cc2)C1.Cl | 1400 | 500 | 57 | 2.8 |  |  |  |  |  |  | inactive | inactive |  |  |  | 
4 | C=C1CN(S(=O)(=O)c2ccc(C)cc2)CCCN(Cc2ccccc2)CCCN(S(=O)(=O)c2ccc(C)cc2)C1.Cl [CYCLOTRIAZADISULFONAMIDE HYDROCHLORIDE] | > 50000 | 2200 |  | > 23 |  |  |  |  |  |  | inactive | inactive |  |  | 43 | 
5 | C=C1CN(S(=O)(=O)c2ccc(N(C)C)cc2)CCCN(CC2CCCCC2)CCCN(S(=O)(=O)c2cccc3ccccc23)C1.Cl |  | 1900 | 60 | > 26 | Active | Active | Active | inactive | inactive | Dose-Dependent Effect | inactive | inactive |  |  |  | > 50000
6 | C=C1CN(S(=O)(=O)c2ccc(C)cc2)CCCN(CCc2ccccc2)CCCN(S(=O)(=O)c2ccc(C)cc2)C1.Cl |  | 1000 | 55 | > 50 | Active | Active | Active | inactive | inactive | Dose-Dependent Effect | inactive | inactive |  |  |  | 50000
7 | C=C1CN(S(=O)(=O)c2ccc(C)cc2)CCc2cc(-c3ccccc3)cc(n2)CCN(S(=O)(=O)c2ccc(C)cc2)C1.Cl | > 50000 | 4000 |  | > 12.5 |  |  | Active |  |  |  | inactive | inactive | Active | Active | 61 | 
